Tested on: G3BP1 NFT2
Type: binding, human
Conditions: library DMS-BM; bait G3BP1 NFT2; prey CAPRIN1; AQMQGPYNFIQDSM(averaged): mean of the two overlapping peptides over the shared positions

| Substance | DMS position-specific score (PSSM value) per amino-acid substitution, averaged |
| --- | --- |
| AQMQGPYNFIQDSM(averaged) P6D (AQMQGDYNFIQDSM) | 0.01341 |
| AQMQGPYNFIQDSM(averaged) D12I (AQMQGPYNFIQISM) | 0.0003022 |
| AQMQGPYNFIQDSM(averaged) S13R (AQMQGPYNFIQDRM) | 0.001343 |
| AQMQGPYNFIQDSM(averaged) G5D (AQMQDPYNFIQDSM) | 0.001672 |
| AQMQGPYNFIQDSM(averaged) F9V (AQMQGPYNVIQDSM) | 0.0005113 |
| AQMQGPYNFIQDSM(averaged) F9K (AQMQGPYNKIQDSM) | 0 |
| AQMQGPYNFIQDSM(averaged) Y7K (AQMQGPKNFIQDSM) | 0 |
| AQMQGPYNFIQDSM(averaged) A1V (VQMQGPYNFIQDSM) | 0.05956 |
| AQMQGPYNFIQDSM(averaged) Q11D (AQMQGPYNFIDDSM) | 0 |
| AQMQGPYNFIQDSM(averaged) S13H (AQMQGPYNFIQDHM) | 0 |
| AQMQGPYNFIQDSM(averaged) Q4W (AQMWGPYNFIQDSM) | 0.01813 |
| AQMQGPYNFIQDSM(averaged) F9L (AQMQGPYNLIQDSM) | 0.0005113 |
| AQMQGPYNFIQDSM(averaged) D12E (AQMQGPYNFIQESM) | 0.04092 |
| AQMQGPYNFIQDSM(averaged) A1H (HQMQGPYNFIQDSM) | 0.006137 |
| AQMQGPYNFIQDSM(averaged) F9N (AQMQGPYNNIQDSM) | 0 |
| AQMQGPYNFIQDSM(averaged) Q11K (AQMQGPYNFIKDSM) | 0.0002863 |
| AQMQGPYNFIQDSM(averaged) Q4M (AQMMGPYNFIQDSM) | 0.02121 |
| AQMQGPYNFIQDSM(averaged) Q4Y (AQMYGPYNFIQDSM) | 0.002959 |
| AQMQGPYNFIQDSM(averaged) P6G (AQMQGGYNFIQDSM) | 0.006371 |
| AQMQGPYNFIQDSM(averaged) M14L (AQMQGPYNFIQDSL) | 0.006578 |
| AQMQGPYNFIQDSM(averaged) S13A (AQMQGPYNFIQDAM) | 0.1575 |
| AQMQGPYNFIQDSM(averaged) Q2K (AKMQGPYNFIQDSM) | 0.006084 |
| AQMQGPYNFIQDSM(averaged) M14F (AQMQGPYNFIQDSF) | 0.1772 |
| AQMQGPYNFIQDSM(averaged) P6W (AQMQGWYNFIQDSM) | 0.02305 |
| AQMQGPYNFIQDSM(averaged) M14T (AQMQGPYNFIQDST) | 0.005834 |
| AQMQGPYNFIQDSM(averaged) M14G (AQMQGPYNFIQDSG) | 0.000626 |
| AQMQGPYNFIQDSM(averaged) P6V (AQMQGVYNFIQDSM) | 0.006564 |

| Substance | DMS position-specific score (PSSM value) per amino-acid substitution, averaged |
| --- | --- |
| AQMQGPYNFIQDSM(averaged) S13T (AQMQGPYNFIQDTM) | 0.05884 |
| AQMQGPYNFIQDSM(averaged) Y7V (AQMQGPVNFIQDSM) | 0.02381 |
| AQMQGPYNFIQDSM(averaged) S13M (AQMQGPYNFIQDMM) | 0 |
| AQMQGPYNFIQDSM(averaged) A1L (LQMQGPYNFIQDSM) | 0.06855 |
| AQMQGPYNFIQDSM(averaged) A1W (WQMQGPYNFIQDSM) | 0.05589 |
| AQMQGPYNFIQDSM(averaged) G5W (AQMQWPYNFIQDSM) | 0.033 |
| AQMQGPYNFIQDSM(averaged) M14K (AQMQGPYNFIQDSK) | 0.0006833 |
| AQMQGPYNFIQDSM(averaged) Q2Y (AYMQGPYNFIQDSM) | 0.05198 |
| AQMQGPYNFIQDSM(averaged) Q11P (AQMQGPYNFIPDSM) | 0 |
| AQMQGPYNFIQDSM(averaged) Q2W (AWMQGPYNFIQDSM) | 0.05769 |
| AQMQGPYNFIQDSM(averaged) M14A (AQMQGPYNFIQDSA) | 0.06493 |
| AQMQGPYNFIQDSM(averaged) N8P (AQMQGPYPFIQDSM) | 0.002565 |
| AQMQGPYNFIQDSM(averaged) Q2E (AEMQGPYNFIQDSM) | 0.09844 |
| AQMQGPYNFIQDSM(averaged) M14I (AQMQGPYNFIQDSI) | 0.02696 |
| AQMQGPYNFIQDSM(averaged) Q4T (AQMTGPYNFIQDSM) | 0.0001371 |
| AQMQGPYNFIQDSM(averaged) G5P (AQMQPPYNFIQDSM) | 0.02397 |
| AQMQGPYNFIQDSM(averaged) Q11T (AQMQGPYNFITDSM) | 0.1081 |
| AQMQGPYNFIQDSM(averaged) S13V (AQMQGPYNFIQDVM) | 0.1094 |
| AQMQGPYNFIQDSM(averaged) Q2D (ADMQGPYNFIQDSM) | 0.02749 |
| AQMQGPYNFIQDSM(averaged) A1S (SQMQGPYNFIQDSM) | 0.001176 |
| AQMQGPYNFIQDSM(averaged) Q11A (AQMQGPYNFIADSM) | 0.001301 |
| AQMQGPYNFIQDSM(averaged) D12S (AQMQGPYNFIQSSM) | 0.1749 |
| AQMQGPYNFIQDSM(averaged) Q4G (AQMGGPYNFIQDSM) | 0.08843 |
| AQMQGPYNFIQDSM(averaged) D12G (AQMQGPYNFIQGSM) | 0.006593 |
| AQMQGPYNFIQDSM(averaged) G5F (AQMQFPYNFIQDSM) | 0.2345 |
| AQMQGPYNFIQDSM(averaged) P6I (AQMQGIYNFIQDSM) | 0.007006 |
| AQMQGPYNFIQDSM(averaged) M3H (AQHQGPYNFIQDSM) | 0.02176 |

| Substance | DMS position-specific score (PSSM value) per amino-acid substitution, averaged |
| --- | --- |
| AQMQGPYNFIQDSM(averaged) Y7W (AQMQGPWNFIQDSM) | 0.03599 |
| AQMQGPYNFIQDSM(averaged) F9S (AQMQGPYNSIQDSM) | 0 |
| AQMQGPYNFIQDSM(averaged) P6R (AQMQGRYNFIQDSM) | 0.01834 |
| AQMQGPYNFIQDSM(averaged) D12W (AQMQGPYNFIQWSM) | 0 |
| AQMQGPYNFIQDSM(averaged) D12R (AQMQGPYNFIQRSM) | 0.003499 |
| AQMQGPYNFIQDSM(averaged) N8R (AQMQGPYRFIQDSM) | 0.00733 |
| AQMQGPYNFIQDSM(averaged) I10M (AQMQGPYNFMQDSM) | 0.03721 |
| AQMQGPYNFIQDSM(averaged) D12N (AQMQGPYNFIQNSM) | 0.03064 |
| AQMQGPYNFIQDSM(averaged) N8D (AQMQGPYDFIQDSM) | 0.05276 |
| AQMQGPYNFIQDSM(averaged) A1K (KQMQGPYNFIQDSM) | 0.0005059 |
| AQMQGPYNFIQDSM(averaged) G5G | 0.2298 |
| AQMQGPYNFIQDSM(averaged) Y7T (AQMQGPTNFIQDSM) | 0 |
| AQMQGPYNFIQDSM(averaged) N8M (AQMQGPYMFIQDSM) | 0.01948 |
| AQMQGPYNFIQDSM(averaged) N8W (AQMQGPYWFIQDSM) | 0.1126 |
| AQMQGPYNFIQDSM(averaged) I10V (AQMQGPYNFVQDSM) | 0.004849 |
| AQMQGPYNFIQDSM(averaged) Q11L (AQMQGPYNFILDSM) | 0.00722 |
| AQMQGPYNFIQDSM(averaged) M14P (AQMQGPYNFIQDSP) | 0 |
| AQMQGPYNFIQDSM(averaged) A1Y (YQMQGPYNFIQDSM) | 0.1391 |
| AQMQGPYNFIQDSM(averaged) F9M (AQMQGPYNMIQDSM) | 0 |
| AQMQGPYNFIQDSM(averaged) N8I (AQMQGPYIFIQDSM) | 0.06952 |
| AQMQGPYNFIQDSM(averaged) P6A (AQMQGAYNFIQDSM) | 0.08584 |
| AQMQGPYNFIQDSM(averaged) N8E (AQMQGPYEFIQDSM) | 0.01047 |
| AQMQGPYNFIQDSM(averaged) I10W (AQMQGPYNFWQDSM) | 0.1749 |
| AQMQGPYNFIQDSM(averaged) S13S | 0.5152 |
| AQMQGPYNFIQDSM(averaged) A1Q (QQMQGPYNFIQDSM) | 0.1157 |
| AQMQGPYNFIQDSM(averaged) M3M | 0.1084 |

From publication PMC12102759 (Protein Science : A Publication of the Protein Society, 2025)
